Source: US20250052985A1, “SYSTEM AND METHOD FOR QUANTITATIVE PHASE IMAGING FOR MULTI-PARAMETRIC SCREENING OF TUMOR THERAPY RESPONSE” (UNIVERSITY OF UTAH RESEARCH FOUNDATION, priority 2023, published 2025)
Several values for one entry are separate records, joined by “and”; a condition that tells them apart may be missing. Identical values can stand only once. Like-named read-outs stand apart in the source and are kept apart here. Each block holds one compound with its values, some of them ahead of it.

How the values were obtained:
[1] = system: BT-474 cells; experiment: cells; settings: for Max Asymptote / Min Asymptote: BT-474, 4-parameter Hill fit of mean SGR vs concentration, one line per replicate; for Hill Slope / log10(EC50): BT-474, Hill fit; for DoR QPI: depth of response
Method in brief: (§1)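 EC50 comes from 4-parameter Hill fits of average specific growth rate (mass accumulation) versus dose; a response is called only when the fit beats a flat line by F-test at p<0.01. Growth was tracked by differential phase contrast QPI for 24 or 72 h post-equilibration, followed by CTG ATP readout.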

[2] = system: MCF-7 cells; experiment: cells; settings: for Max Asymptote / Min Asymptote: MCF-7, 4-parameter Hill fit of mean SGR vs concentration, one line per replicate; for log10(EC50): MCF-7, Hill fit; for DoR QPI: depth of response; for ToR 20 μM: time of response at 20 μM
Method in brief: as §1

[3] = system: MDA-MB-231 cells; experiment: Quantitative phase imaging (QPI) growth response, MDA-MB-231; type: cell-based; design: DoR QPI: scale not given here; ToR 20 μM: unit not given here; settings: for Max Asymptote / Min Asymptote: MDA-MB-231, 4-parameter Hill fit of mean SGR vs concentration, one line per replicate; for DoR QPI: depth of response; for ToR 20 μM: time of response at 20 μM
Method in brief: as §1

[4] = system: MCF-7 cells; experiment: CellTiter-Glo (CTG) ATP viability assay, MCF-7; type: cell-based; settings: for Min Asymptote: MCF-7, Hill fit of luminescence normalized to solvent control, one line per replicate; for DoR CTG: depth of response
Procedure: (§2) CTG (e.g., read by the CTG reader 115) is a cell viability assay that quantifies the amount of ATP present at the end of an experiment as an indicator of the number of live cells. The electronic controller 155 measures ATP content in each condition as a readout by a luminescent signal, which is normalized by the luminescence of the control (e.g., a control well) to determine cell viability relative to on-plate controls. In some embodiments, the CTG assay is performed by first removing 100 μL of media from each well on the well-plate 105, which is then replaced with an equal amount of CellTiter-Glo reagent (e.g., Promega, G7572). Assayed plates may be shaken at 500 RPM for 20 minutes and allowed to rest for 10 minutes. In some instances, 100 μL of volume from each well is transferred to a white 96-well plate (e.g., Perkin Elmer, 6005680). The electronic controller 155 collects luminescence data from each well using an Envision plate reader (e.g., Perkin Elmer) and normalized against the solvent control to measure ATP content. The electronic controller 155 fits a 4-parameter hill curve to the dose response to determine the EC50 and depth of response.

[5] = system: MDA-MB-231 cells; experiment: CellTiter-Glo (CTG) ATP viability assay, MDA-MB-231; type: cell-based; settings: for Min Asymptote: MDA-MB-231, Hill fit of luminescence normalized to solvent control, one line per replicate; for DoR CTG: depth of response
Procedure: as §2

[6] = 24 h QPI, EC50 in μM per Table 1
[7] = MDA-MB-231 cell line, CellTiter-Glo

EC50 ([1]; Homo sapiens, BT-474, 24 h, read-out: log10(EC50), 24 h QPI, BT-474, Hill fit (converted), EC50 in μM per Table 1): 0.0682 µM
EC50 ([1]; Homo sapiens, BT-474, read-out: EC50, QPI, BT-474 cell line, QPI growth rate): 0.1 µM
log10(EC50) [2, 6]: −1.151
EC50 ([2]; Homo sapiens, MCF7, 24 h, read-out: log10(EC50), 24 h QPI, MCF-7, Hill fit (converted), EC50 in μM per Table 1): 8.57 µM
EC50 ([2]; Homo sapiens, MCF7, read-out: EC50, QPI, MCF-7 cell line, QPI growth rate): 25.7 µM
EC50 ([3]; Homo sapiens, MDA-MB-231, 24 h, 24 h QPI, MDA-MB-231, Hill fit, EC50 in μM per Table 1, read-out: log10(EC50) (converted)): 17.4 µM
EC50 ([3]; Homo sapiens, MDA-MB-231, 72 h, 72 h QPI, MDA-MB-231, Hill fit, EC50 in μM per Table 1, read-out: log10(EC50) (converted)): 118 µM
EC50 ([3]; Homo sapiens, MDA-MB-231, MDA-MB-231 cell line, QPI growth rate, read-out: EC50, QPI): 118 µM
EC50 ([4]; Homo sapiens, MCF7, 24 h, 24 h CTG, MCF-7, Hill fit, read-out: log10(EC50) (converted)): 1.89 µM
EC50 ([4]; Homo sapiens, MCF7, MCF-7 cell line, CellTiter-Glo, read-out: EC50, CTG (converted)): 10.8 µM
EC50 ([5]; Homo sapiens, MDA-MB-231, 72 h, 72 h CTG, MDA-MB-231, Hill fit, read-out: log10(EC50) (converted)): 6 µM
EC50 ([5]; Homo sapiens, MDA-MB-231, MDA-MB-231 cell line, CellTiter-Glo, read-out: EC50, CTG): 6 µM
Structure (SMILES): O=c1[nH]cc(F)c(=O)[nH]1 [5FU, 5-Fluorouracil]
Max Asymptote ([1]; 24 h QPI): 0.01107
Min Asymptote ([1]; 24 h QPI): 0.009021
Hill Slope ([1]; 24 h QPI): 0.9134
Max Asymptote ([1]; 72 h QPI): 0.007708 and 0.007733
Min Asymptote ([1]; 72 h QPI): 0.008643 and 0.009665
Hill Slope ([1]; 72 h QPI): 1.5745 and 1.1389
DoR QPI ([1]; BT-474 cell line): 0.2
Max Asymptote ([2]; 24 h QPI): 0.02676 and 0.02665 (2×)
Min Asymptote ([2]; 24 h QPI): 0.01382 and 0.007436 (2×)
Min Asymptote ([2]; 72 h QPI): 0.0232 and 0.02426 and 0.02866
DoR QPI ([2]; MCF-7 cell line): 1.0
ToR 20 μM ([2]; MCF-7 cell line): 9.4
Max Asymptote ([3]; 24 h QPI): 0.03336
Min Asymptote ([3]; 24 h QPI): 0.01996
Hill Slope ([3]; 24 h QPI, MDA-MB-231, Hill fit): 0.341
Max Asymptote ([3]; 72 h QPI): −0.009666
Min Asymptote ([3]; 72 h QPI): 0.03351
Hill Slope ([3]; 72 h QPI, MDA-MB-231, Hill fit): 0.4483
DoR QPI ([3]; MDA-MB-231 cell line): 1.2
ToR 20 μM ([3]; MDA-MB-231 cell line): 15.2
Hill Slope ([4]; 24 h CTG, MCF-7, Hill fit): 7.081
Min Asymptote ([4]; 24 h CTG): 0.9238
Hill Slope ([4]; 72 h CTG, MCF-7, Hill fit): 1.254 and 1.059 and 1.202
Min Asymptote ([4]; 72 h CTG): 0.1952 and 0.003653 and 0.01678
DoR CTG ([4]; MCF-7 cell line, CellTiter-Glo): 0.9
Hill Slope ([5]; 72 h CTG, MDA-MB-231, Hill fit): 1.997
Min Asymptote ([5]; 72 h CTG): 0.4937
DoR CTG [5, 7]: 0.5

Structure (SMILES): CCC(=C(c1ccc(O)cc1)c1ccc(OCCN(C)C)cc1)c1ccccc1 [4HT, 4-hydroxy-Tamoxifen]
Max Asymptote ([1]; 24 h QPI): 0.01232 and 0.00969 and 0.009107
Min Asymptote ([1]; 24 h QPI): −0.01613 and −0.02375 and −0.02493
Hill Slope ([1]; 24 h QPI): 2.303 and 3.2307 and 3.3723
log10(EC50) [1, 6]: −1.1593 and −1.2498 and −1.2667
Max Asymptote ([1]; 72 h QPI): −0.01224 and −0.01212 and −0.01166
Min Asymptote ([1]; 72 h QPI): 0.009052 and 0.007511 and 0.008099
Hill Slope ([1]; 72 h QPI): 3.3746 and 3.7567 and 4.6177
log10(EC50) ([1]; 72 h QPI, EC50 in μM per Table 1): −1.2566 and −1.2595 and −1.2511
response of growth rate and heterogeneity to treatment ([1]; BT-474, FIG. 5E, 22, 23): both reduced growth rate and slightly increased heterogeneity
growth rate and heterogeneity as concentration increases ([1]; BT-474, FIG. 22): decrease in growth rate at approximately constant standard deviation
growth rate and heterogeneity over time ([1]; BT-474, FIG. 23 Graph F): first experiencing reduced growth rate, and then a large spike in heterogeneity
DoR QPI ([1]; BT-474 cell line): 2.5
ToR 20 μM ([1]; BT-474 cell line, time of response at 20 μM): −0.9815
EC50 ([1]; read-out: EC50, QPI, BT-474 cell line, QPI growth rate): 18 µM
Max Asymptote ([2]; 24 h QPI): 0.02753 and 0.02505 (2×)
log10(EC50) [2, 6]: −1.3545
Min Asymptote ([2]; 72 h QPI): 0.02137 and 0.02094 and 0.02499
DoR QPI ([2]; MCF-7 cell line): 2.1
ToR 20 μM ([2]; MCF-7 cell line): −1.3078
EC50 ([2]; read-out: EC50, QPI, MCF-7 cell line, QPI growth rate): 75.2 µM
Max Asymptote ([3]; 24 h QPI): 0.02875 and 0.03107 and 0.03303
Min Asymptote ([3]; 24 h QPI): 0.007676 and 0.007611 and −0.003024
log10(EC50) ([3]; 24 h QPI, MDA-MB-231, Hill fit, EC50 in μM per Table 1): −1.2332 and −1.2248 and −1.2436
Max Asymptote ([3]; 72 h QPI): −0.006134 and −0.01506 and −0.008455
Min Asymptote ([3]; 72 h QPI): 0.02885 and 0.03029 and 0.03246
Hill Slope ([3]; 72 h QPI, MDA-MB-231, Hill fit): 2.0951 and 2.4347 and 1.6101
log10(EC50) ([3]; 72 h QPI, MDA-MB-231, Hill fit, EC50 in μM per Table 1): −1.2344 and −1.2249 and −1.0505
growth rate and heterogeneity over time ([3]; MDA-MB-231, highest concentration, FIG. 21 F): first decreases in growth rate and then decreases in heterogeneity
mean SGR vs SD of growth parameterized by time ([3]; MDA-MB-231, maximal concentration, FIG. 5D): reduction in growth rate before heterogeneity is affected
EC50 ([3]; MDA-MB-231 cell line, QPI growth rate, read-out: EC50, QPI): 15.1 µM
DoR QPI ([3]; MDA-MB-231 cell line): 1.3
ToR 20 μM ([3]; MDA-MB-231 cell line): 1.0
Min Asymptote ([4]; 24 h CTG): 7.96E−12 and 5.22E−09
log10(EC50) ([4]; 72 h CTG, MCF-7, Hill fit): −0.5373 and −0.5549 and −0.6776
Min Asymptote ([4]; 72 h CTG): 2.23E−14 and 2.22E−14 and 3.01E−12
EC50 ([4]; MCF-7 cell line, CellTiter-Glo, read-out: EC50, CTG (converted)): 3.9 µM
DoR CTG ([4]; MCF-7 cell line, CellTiter-Glo): 1.0
Hill Slope ([5]; 24 h CTG, MDA-MB-231, Hill fit): 5.351
log10(EC50) ([5]; 24 h CTG, MDA-MB-231, Hill fit): −0.5158
Min Asymptote ([5]; 24 h CTG): 0.393
log10(EC50) ([5]; 72 h CTG, MDA-MB-231, Hill fit): −0.9458
Min Asymptote ([5]; 72 h CTG): 0.003315 and 0.01516 (2×)
EC50 ([5]; MDA-MB-231 cell line, CellTiter-Glo, read-out: EC50, CTG): 6.9 µM
DoR CTG [5, 7]: 1.0
